# Assay results published in patent US20260317292A1, “SMALL MOLECULE THERAPY FOR DUCHENNE MUSCULAR DYSTROPHY” (The Regents of the University of California, priority 2023, published 2026).
# Test system: endogenous SSPN protein with an N-term fusion protein (C2C12 cells)
# Experiment: C2C12 HiBiT assay (SSPN-HiBiT myotubes, primary screen)
# Type: cell-based, murine
# Conditions: treated day 2, harvested day 4 of differentiation, concentration not given
# Method: FIG. 1. Activity of DDL-463, DDL-465 (A) and DDL-472 (B) in HiBiT assay. Comparison of activity of the new compounds with parent compound (OT-9m) and vehicle-treated cells. SSPN-HiBiT myotubes were treated on day 2 and harvested on day 4 of differentiation. R.U.=relative units normalized to protein concentration and vehicle control (DMSO). n=18. **p<0.01, ****p<0.0001, ns-difference is non-significant from the vehicle-treated cells.
# (§1) Comparison of activity of the new compounds of quinolone series (DDL-494, DDL-495, DDL-496) with parent compound (DDL-449 (aka OT-9m)) and vehicle-treated cells. SSPN-HiBiT myotubes were treated on day 2 and harvested on day 4 of differentiation. R.U.=relative units normalized to protein concentration and vehicle control (DMSO). n=18 for every compound concentration. *p<0.05; **p<0.01, ***p<0.001; ****p<0.0001
# as §1, with “compound” for “compounds”, “coumarin” for “quinolone”, “(DDL-491)” for “(DDL-494, DDL-495, DDL-496)”, “(DDL-472)” for “(DDL-449 (aka OT-9m))”, “*p<0.05;” for “*p<0.05; **p<0.01, ***p<0.001;”
# To assess activity of the new molecules, a C2C12 HiBiT assay was used as a primary screen. This assay is based on murine C2C12 cell line expressing endogenous SSPN protein with an N-term fusion protein described previously in WO 2022/055926.
# Details on development of HiBiT assay for rapid testing of new analogues in vitro (FIG. 2A, B) are provided in PCT Pub. No. WO 2022/055926.
row,SMILES,SSPN-HiBiT fold change over vehicle
1,COc1ccc2[nH]c(=O)c(C(=O)NC3=NNC(C(=O)N4CCCOCC4)N3)cc2c1 (stereo not drawn) [DDL-458],~1 fold
2,"COc1ccc2[nH]c(=O)c(C(=O)Nc3c[nH]c(C(=O)N4CCCOCC4)n3)cc2c1 [DDL-459, N-(2-(1,4-oxazepane-4-carbonyl)-1H-imidazol-4-yl)-6-methoxy-2-oxo-1,2-dihydroquinoline-3-carboxamide]",~1 fold
3,COc1ccc2cc(C(=O)Nc3ccc(C(=O)N4CCCOCC4)cc3)c(=O)[nH]c2c1 [DDL-460],1.1 fold
4,COc1cc2cc(C(=O)Nc3ccc(C(=O)N4CCCOCC4)cc3)c(=O)[nH]c2cc1OC [DDL-461],1.1 fold
5,O=C(Nc1ccc(C(=O)N2CCCOCC2)cc1)c1cc2ccccc2[nH]c1=O [DDL-462],~1 fold
6,O=C(Nc1ccc(C(=O)N2CCCOCC2)cc1)c1cc2cc(F)ccc2[nH]c1=O [DDL-463],1.4 fold
7,O=C(Nc1ccc(C(=O)N2CCCOCC2)cc1)c1cc2ccc(F)cc2[nH]c1=O [DDL-464],~1 fold
8,CC(=O)Nc1ccc2[nH]c(=O)c(C(=O)Nc3ccc(C(=O)N4CCCOCC4)cc3)cc2c1 [DDL-476],~1 fold
9,CC(C)Oc1ccc2cc(C(=O)Nc3ccc(C(=O)N4CCCOCC4)cc3)c(=O)oc2c1 [DDL-481],~0.9 fold
10,O=C(Nc1ccc(C(=O)N2CCCOCC2)cc1)c1cc2ccc(N3CCOCC3)cc2oc1=O [DDL-482],~1 fold
11,CN(C)c1ccc2cc(C(=O)Nc3ccc(C(=O)N4CCCOCC4)cc3)c(=O)oc2c1 [DDL-484],1.1 fold
12,C#CCN(CC)c1ccc2cc(C(=O)Nc3ccc(C(=O)N4CCCOCC4)cc3)c(=O)oc2c1 [DDL-489],1.2 fold
13,CC(C)N(c1ccc2cc(C(=O)Nc3ccc(C(=O)N4CCCOCC4)cc3)c(=O)oc2c1)C(C)C [DDL-491],1.4 fold
14,O=C(Nc1ccc(C(=O)N2CCCOCC2)cc1)c1cc2cc(Br)ccc2[nH]c1=O [DDL-496],1.3 fold
15,CC(C)Oc1ccc2[nH]c(=O)c(C(=O)Nc3ccc(C(=O)N4CCCOCC4)cc3)cc2c1 [DDL-762],1.4 fold

# Same assay, conditions: treated day 2, harvested day 4 of differentiation, vs vehicle
row,SMILES,activity in HiBiT assay
1,O=C(Nc1ccc(C(=O)N2CCCOCC2)cc1)c1cc2cc(F)ccc2[nH]c1=O [DDL-463],exhibit activity
2,CC(C)N(c1ccc2cc(C(=O)Nc3ccc(C(=O)N4CCCOCC4)cc3)c(=O)oc2c1)C(C)C [DDL-491],active
3,O=C(Nc1ccc(C(=O)N2CCCOCC2)cc1)c1cc2cc(Br)ccc2[nH]c1=O [DDL-496],active
